According to ChEMBL document CHEMBL5465560, “Selectivity Literature for EUbOPEN Chemogenomic Library” (2024):

Tests used:
[1] = molecular target: Serine/threonine-protein kinase 26 (Homo sapiens, UniProt Q9P289); test: Selectivity interaction (KinomeScan (DiscoverX)) EUB0000595a STK26; details: at 10 µM
[2] = molecular target: Bromodomain-containing protein 4 (Homo sapiens, UniProt O60885); test: Selectivity interaction (Kinase panel (DSF assay)) EUB0001559a BRD4
[3] = molecular target: T1, Serine/threonine-protein kinase DCLK1 (Homo sapiens) (UniProt O15075); test: Selectivity interaction (Kinase panel (DSF assay)) EUB0001559a DCLK1
T1 sequence (whole entry): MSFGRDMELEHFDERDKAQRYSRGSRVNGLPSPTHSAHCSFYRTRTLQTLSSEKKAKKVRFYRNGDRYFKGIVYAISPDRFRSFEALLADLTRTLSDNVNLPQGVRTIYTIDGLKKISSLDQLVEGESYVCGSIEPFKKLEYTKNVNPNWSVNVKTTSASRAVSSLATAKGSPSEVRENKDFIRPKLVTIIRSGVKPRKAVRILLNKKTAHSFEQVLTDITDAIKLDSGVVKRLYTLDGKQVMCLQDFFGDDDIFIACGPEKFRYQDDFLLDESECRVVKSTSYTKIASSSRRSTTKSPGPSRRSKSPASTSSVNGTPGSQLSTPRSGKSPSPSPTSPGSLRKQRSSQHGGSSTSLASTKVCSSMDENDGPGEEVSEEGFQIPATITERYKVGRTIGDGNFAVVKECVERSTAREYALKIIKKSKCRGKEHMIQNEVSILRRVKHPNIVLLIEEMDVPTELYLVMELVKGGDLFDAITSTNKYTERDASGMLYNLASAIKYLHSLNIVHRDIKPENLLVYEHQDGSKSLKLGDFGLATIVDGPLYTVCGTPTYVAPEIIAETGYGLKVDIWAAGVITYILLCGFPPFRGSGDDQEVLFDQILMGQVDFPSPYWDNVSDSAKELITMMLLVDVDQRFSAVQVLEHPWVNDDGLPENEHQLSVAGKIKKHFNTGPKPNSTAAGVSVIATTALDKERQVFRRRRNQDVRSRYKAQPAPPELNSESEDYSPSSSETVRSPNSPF

[4] = tested on: Tyrosine-protein kinase ABL1 (Homo sapiens), P00519 [Q252H]; test: Selectivity interaction (KinomeScan (DiscoverX)) EUB0000045b ABL1; details: at 10 µM
[5] = molecular target: Homeodomain-interacting protein kinase 3 (Homo sapiens, UniProt Q9H422); test: Selectivity interaction (Enzymatic assay (Eurofins)) EUB0001049a HIPK3
[6] = molecular target: Proto-oncogene tyrosine-protein kinase receptor Ret (Homo sapiens, UniProt P07949); test: Selectivity interaction (Millipore kinase profiler) EUB0000124b RET; details: at 10 µM
[7] = molecular target: PAS domain-containing serine/threonine-protein kinase (Homo sapiens) (UniProt Q96RG2); test: Selectivity interaction (Upstate Kinase Profiler service (Millipore)) EUB0000056c PASK; details: at 1 µM
Focal adhesion kinase 1 = Focal adhesion kinase 1 (Homo sapiens, UniProt Q05397); test: Selectivity interaction (ProQinase) EUB0000171b PTK2
[8] = molecular target: T2, Serine/threonine-protein kinase LATS2 (Homo sapiens) (UniProt Q9NRM7); test: Selectivity interaction (KinomeScan (DiscoverX)) EUB0001619a LATS2; details: at 1 µM
T2 sequence (whole entry): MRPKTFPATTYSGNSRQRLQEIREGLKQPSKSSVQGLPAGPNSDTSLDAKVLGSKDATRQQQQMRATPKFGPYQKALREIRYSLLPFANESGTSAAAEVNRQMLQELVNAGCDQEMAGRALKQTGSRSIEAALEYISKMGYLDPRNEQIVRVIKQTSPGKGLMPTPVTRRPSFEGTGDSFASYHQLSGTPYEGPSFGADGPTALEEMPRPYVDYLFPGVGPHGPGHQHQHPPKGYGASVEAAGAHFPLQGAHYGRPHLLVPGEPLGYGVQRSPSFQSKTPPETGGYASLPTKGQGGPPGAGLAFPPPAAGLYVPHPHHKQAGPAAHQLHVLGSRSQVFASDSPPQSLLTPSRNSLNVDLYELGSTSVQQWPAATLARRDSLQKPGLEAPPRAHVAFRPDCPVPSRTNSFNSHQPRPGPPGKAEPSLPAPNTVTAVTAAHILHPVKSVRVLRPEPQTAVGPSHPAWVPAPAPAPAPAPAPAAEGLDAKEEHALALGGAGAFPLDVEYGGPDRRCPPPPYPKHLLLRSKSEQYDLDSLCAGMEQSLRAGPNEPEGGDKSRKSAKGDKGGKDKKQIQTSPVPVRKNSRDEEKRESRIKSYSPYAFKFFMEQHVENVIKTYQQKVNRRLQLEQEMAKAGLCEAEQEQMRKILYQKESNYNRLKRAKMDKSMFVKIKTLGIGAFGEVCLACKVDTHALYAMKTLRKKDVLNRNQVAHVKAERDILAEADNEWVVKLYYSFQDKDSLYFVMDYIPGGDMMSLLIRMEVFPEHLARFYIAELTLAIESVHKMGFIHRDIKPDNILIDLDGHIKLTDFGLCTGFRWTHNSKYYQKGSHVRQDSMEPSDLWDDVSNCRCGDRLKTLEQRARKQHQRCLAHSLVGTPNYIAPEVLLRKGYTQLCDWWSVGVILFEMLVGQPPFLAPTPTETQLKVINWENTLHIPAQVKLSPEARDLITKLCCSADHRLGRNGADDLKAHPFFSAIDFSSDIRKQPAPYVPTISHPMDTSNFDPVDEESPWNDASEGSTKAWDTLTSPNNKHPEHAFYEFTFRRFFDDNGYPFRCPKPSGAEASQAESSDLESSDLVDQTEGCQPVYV

[9] = molecular target: Tyrosine-protein kinase JAK1 (Homo sapiens, UniProt P23458); test: Selectivity interaction (ActivX KiNativ screen (kinase selectivity in THP-1 cell lysates)) EUB0000639a JAK1; type: subcellular; details: lysate, at 0.04 µM
Chain of Tyrosine-protein kinase JAK1 (P23458 whole entry): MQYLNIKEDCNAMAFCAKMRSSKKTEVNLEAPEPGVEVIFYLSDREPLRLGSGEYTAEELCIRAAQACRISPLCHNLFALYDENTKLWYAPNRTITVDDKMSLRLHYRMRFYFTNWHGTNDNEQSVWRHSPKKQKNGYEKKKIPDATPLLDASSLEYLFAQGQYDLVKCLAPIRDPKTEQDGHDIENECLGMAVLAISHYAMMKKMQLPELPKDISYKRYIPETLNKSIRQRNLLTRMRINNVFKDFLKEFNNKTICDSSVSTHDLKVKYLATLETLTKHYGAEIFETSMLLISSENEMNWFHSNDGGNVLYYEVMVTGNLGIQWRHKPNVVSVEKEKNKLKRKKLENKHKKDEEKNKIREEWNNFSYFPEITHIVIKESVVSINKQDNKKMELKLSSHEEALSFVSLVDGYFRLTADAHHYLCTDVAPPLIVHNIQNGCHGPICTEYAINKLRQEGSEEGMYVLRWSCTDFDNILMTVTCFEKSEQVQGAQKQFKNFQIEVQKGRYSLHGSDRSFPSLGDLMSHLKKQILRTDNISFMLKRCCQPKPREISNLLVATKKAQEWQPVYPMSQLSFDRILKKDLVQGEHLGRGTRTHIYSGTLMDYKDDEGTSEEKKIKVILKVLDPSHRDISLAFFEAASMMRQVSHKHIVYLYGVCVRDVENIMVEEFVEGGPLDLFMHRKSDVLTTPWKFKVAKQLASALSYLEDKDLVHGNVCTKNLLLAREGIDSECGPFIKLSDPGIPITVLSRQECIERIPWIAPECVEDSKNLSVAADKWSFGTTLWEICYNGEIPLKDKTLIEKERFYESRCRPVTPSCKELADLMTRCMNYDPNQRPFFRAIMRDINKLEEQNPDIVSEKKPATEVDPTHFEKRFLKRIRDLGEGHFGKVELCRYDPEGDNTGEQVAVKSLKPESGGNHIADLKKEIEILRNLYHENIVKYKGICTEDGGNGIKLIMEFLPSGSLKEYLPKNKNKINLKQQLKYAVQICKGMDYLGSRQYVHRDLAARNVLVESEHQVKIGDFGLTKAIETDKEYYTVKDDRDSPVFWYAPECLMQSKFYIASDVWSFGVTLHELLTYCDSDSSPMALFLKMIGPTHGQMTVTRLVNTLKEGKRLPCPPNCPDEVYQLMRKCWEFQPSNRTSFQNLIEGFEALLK

Chain of Focal adhesion kinase 1 (Q05397 2-1052 limits assumed): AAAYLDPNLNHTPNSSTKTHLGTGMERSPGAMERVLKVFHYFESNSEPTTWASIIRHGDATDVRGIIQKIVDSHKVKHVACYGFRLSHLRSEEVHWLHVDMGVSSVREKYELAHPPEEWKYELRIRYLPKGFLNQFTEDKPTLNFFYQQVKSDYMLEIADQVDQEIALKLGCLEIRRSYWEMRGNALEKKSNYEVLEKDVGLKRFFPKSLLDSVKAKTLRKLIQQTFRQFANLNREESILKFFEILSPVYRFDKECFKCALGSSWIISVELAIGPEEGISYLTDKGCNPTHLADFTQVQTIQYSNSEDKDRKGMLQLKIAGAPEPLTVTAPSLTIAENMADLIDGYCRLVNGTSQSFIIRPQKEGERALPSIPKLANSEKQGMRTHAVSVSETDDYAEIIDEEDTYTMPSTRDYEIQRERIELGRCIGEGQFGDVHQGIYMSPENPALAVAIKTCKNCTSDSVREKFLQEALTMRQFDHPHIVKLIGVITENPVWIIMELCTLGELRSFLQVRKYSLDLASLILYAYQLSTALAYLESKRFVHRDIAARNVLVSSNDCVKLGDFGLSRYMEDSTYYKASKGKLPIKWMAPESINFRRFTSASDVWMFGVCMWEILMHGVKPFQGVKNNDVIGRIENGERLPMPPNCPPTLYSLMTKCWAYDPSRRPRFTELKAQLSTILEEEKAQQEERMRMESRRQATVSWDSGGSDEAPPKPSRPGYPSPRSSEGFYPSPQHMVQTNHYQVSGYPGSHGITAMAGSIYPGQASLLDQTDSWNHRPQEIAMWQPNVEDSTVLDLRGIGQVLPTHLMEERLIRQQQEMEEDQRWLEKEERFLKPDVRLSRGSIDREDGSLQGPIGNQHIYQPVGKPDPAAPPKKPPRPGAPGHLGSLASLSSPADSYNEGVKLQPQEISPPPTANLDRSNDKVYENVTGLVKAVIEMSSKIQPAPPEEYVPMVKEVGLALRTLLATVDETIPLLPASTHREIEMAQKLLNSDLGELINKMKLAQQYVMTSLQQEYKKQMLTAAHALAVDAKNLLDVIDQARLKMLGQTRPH
Chain of Serine/threonine-protein kinase 26 (Q9P289 2-416 limits assumed): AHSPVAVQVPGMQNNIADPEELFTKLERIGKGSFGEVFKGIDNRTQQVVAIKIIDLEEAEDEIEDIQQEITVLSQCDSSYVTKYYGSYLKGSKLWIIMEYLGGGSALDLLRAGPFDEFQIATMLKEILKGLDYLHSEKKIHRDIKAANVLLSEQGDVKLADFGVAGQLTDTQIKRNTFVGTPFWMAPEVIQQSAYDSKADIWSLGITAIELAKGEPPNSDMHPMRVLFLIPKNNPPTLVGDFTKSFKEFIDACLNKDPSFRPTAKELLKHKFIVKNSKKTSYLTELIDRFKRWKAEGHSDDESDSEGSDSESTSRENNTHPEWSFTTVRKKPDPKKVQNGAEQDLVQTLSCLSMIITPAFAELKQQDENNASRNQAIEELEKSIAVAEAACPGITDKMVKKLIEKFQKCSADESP
Chain of Homeodomain-interacting protein kinase 3 (Q9H422 whole entry): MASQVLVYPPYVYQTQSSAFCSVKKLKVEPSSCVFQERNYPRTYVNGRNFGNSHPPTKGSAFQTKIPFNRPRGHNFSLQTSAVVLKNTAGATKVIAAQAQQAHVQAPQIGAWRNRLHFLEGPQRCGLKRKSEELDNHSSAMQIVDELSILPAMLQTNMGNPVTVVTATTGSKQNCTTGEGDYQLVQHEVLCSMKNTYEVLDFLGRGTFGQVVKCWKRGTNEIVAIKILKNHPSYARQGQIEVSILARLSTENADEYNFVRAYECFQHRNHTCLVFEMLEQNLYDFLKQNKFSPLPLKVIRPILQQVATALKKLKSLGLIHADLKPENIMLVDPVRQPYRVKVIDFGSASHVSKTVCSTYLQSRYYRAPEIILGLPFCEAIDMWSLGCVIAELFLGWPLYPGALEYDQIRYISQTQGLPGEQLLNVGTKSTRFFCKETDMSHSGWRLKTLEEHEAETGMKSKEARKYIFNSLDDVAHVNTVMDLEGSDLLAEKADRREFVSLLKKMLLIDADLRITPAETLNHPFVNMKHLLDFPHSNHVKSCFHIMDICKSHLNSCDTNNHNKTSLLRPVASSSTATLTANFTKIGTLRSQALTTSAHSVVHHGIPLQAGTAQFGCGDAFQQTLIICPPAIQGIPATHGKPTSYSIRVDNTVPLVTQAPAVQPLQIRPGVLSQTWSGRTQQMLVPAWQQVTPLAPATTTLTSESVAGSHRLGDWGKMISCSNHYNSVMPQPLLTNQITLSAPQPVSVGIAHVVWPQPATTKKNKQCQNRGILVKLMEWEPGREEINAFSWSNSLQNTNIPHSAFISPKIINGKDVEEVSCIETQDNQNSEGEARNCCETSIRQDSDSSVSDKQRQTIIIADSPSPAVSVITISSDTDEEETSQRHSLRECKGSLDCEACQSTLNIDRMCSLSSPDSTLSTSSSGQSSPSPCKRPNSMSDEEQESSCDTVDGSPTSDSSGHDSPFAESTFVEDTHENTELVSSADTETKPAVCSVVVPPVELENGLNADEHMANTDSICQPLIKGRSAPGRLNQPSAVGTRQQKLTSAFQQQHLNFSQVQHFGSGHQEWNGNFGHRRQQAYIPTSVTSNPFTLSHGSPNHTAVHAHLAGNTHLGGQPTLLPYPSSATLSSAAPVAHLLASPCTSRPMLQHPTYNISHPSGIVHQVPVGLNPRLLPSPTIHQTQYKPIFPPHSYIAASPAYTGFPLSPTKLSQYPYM
Chain of Proto-oncogene tyrosine-protein kinase receptor Ret (P07949 whole entry, the tested form may be a part): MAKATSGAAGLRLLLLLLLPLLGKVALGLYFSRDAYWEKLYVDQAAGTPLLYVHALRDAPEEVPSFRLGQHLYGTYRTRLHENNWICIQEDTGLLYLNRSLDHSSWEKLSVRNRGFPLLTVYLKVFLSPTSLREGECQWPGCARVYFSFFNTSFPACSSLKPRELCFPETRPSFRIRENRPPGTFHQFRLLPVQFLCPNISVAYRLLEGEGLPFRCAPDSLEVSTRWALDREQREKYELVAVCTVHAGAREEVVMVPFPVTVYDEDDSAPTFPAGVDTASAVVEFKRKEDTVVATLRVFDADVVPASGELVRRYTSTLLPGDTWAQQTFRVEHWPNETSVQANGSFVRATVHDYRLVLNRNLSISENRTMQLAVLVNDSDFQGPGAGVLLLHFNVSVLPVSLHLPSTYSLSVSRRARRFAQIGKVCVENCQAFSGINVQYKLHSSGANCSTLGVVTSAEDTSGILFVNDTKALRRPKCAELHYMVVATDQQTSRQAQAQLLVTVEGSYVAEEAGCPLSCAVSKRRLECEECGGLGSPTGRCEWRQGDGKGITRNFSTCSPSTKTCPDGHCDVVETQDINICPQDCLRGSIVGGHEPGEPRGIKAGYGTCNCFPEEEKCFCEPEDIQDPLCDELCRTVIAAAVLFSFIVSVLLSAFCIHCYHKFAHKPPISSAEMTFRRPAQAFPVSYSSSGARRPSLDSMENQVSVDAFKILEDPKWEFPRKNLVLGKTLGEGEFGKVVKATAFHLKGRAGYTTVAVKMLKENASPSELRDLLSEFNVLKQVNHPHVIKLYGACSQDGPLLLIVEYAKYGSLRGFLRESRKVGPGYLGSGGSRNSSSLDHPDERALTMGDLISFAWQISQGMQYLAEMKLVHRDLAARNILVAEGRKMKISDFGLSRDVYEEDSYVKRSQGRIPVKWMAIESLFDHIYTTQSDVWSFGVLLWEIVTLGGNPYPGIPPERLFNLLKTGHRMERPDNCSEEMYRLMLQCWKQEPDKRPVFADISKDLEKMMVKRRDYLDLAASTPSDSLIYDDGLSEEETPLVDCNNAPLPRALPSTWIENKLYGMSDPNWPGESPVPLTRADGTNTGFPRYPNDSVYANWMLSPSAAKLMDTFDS

Compound: COCC(=O)NC/C=C/c1ccc2ncnc(Nc3ccc(Oc4ccc(C)nc4)c(C)c3)c2c1 [CP-724714]
- % of control [1]: 90%

Compound: CN(C(=O)c1cnn2cccnc12)c1cc2c(cc1N1CCOCC1)C(=O)N(C[C@@H](F)C(C)(C)O)C2
- dTM [2]: -0.8 K
- dTM [3]: -0.6 K

Compound: C=CC(=O)Nc1cc(-n2c(=O)ccc3cnc4ccc(-c5ccc(NS(C)(=O)=O)cc5)cc4c32)ccc1C
- % of control [4]: 75%

Compound: COc1cc(Nc2nc(C)cc(-c3cnn4nc(OC)ccc34)n2)cc(C(F)(F)F)c1
- IC50 [5]: > 10 µM

Compound: CC(=O)Nc1cccc(-n2c(=O)n(C3CC3)c(=O)c3c(Nc4ccc(I)cc4F)n(C)c(=O)c(C)c32)c1
- % of control [6]: 109%

Compound: Cc1ccc(-c2ccc3c(ccc4sc5c(c43)NC[C@@H](C)NC5=O)n2)cn1
- % of inhibition [7]: 44%

Compound: C=CC(=O)Nc1cccc(C(=O)Nc2ccc(Nc3cc(-c4[nH]c(SC)nc4C)ccn3)cc2)c1
- % of control (Focal adhesion kinase 1; at 1 µM): 106%
- % of control (Focal adhesion kinase 1; at 5 µM): 92%

Compound: N#Cc1cccc(-c2c[nH]c3ncnc(N4CCOCC4)c23)c1
- % of control [8]: 87%

Compound: CC[C@@H]1[C@H](F)C(=O)N[C@@H]1COc1nccc2cc(C(N)=O)c(OC)cc12 [ZIMLOVISERTIB]
- % of inhibition [9]: -11.6%
